For one assay, the system named is HCV genotype 1b replicon. The assay is described as follows: HCV replicon assay, genotype 1b replicon EC50. The assay is classed as cell-based, Hepatitis C virus. To be noted: Hepatitis C virus, genotype 1b replicon, read-out: EC50 [gt-1b]. Put shortly:
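Stable neomycin phosphotransferase-encoding replicon cell lines, kept under G418 selection beforehand, were plated with a compound dilution series without G418 and incubated 24-48 hours. Replicon RNA was then quantified, or luciferase activity read. EC50 was calculated as percent of DMSO control by four-parameter fit.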

For assay [1], the target named is HCV NS3/4A protease genotype 1b (Hepatitis C virus genotype 1b, UniProt P26663). Put plainly: HCV NS3/4A protease time-resolved fluorescence (TRF) assay, Ki against genotype 1b. The class given is biochemical. The following applies: IC50 [gt-1b] (nM), NS3/4A genotype 1b, enzyme 0.2 nM. Put shortly:
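First, protease (genotype 1b 0.2 nM, A156T 0.4 nM, genotype 3a 0.025 nM) is preincubated 30 min with inhibitor. Next, 25 nM TRF substrate starts the reaction, run 2.5 h at room temperature. Finally, europium fluorescence is read and Ki calculated from IC50.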

Where two headings read alike, the source gives them in different places.

Usually EC50 stands for the midpoint of the concentration-response curve. By IC50 is commonly meant the concentration that gives 50% inhibition.

With `COc1ccc2c3c(c(C4CC4)nc2c1)O[C@]1(CC3)C[C@H]2C(=O)N[C@]3(C(=O)NS(=O)(=O)C4(C)CC4)C[C@H]3/C=C\CCCCC[C@H](NC(=O)OC3CCCC3)C(=O)N2C1` [Example 134, cyclopentyl [(2R,6S,12Z,13aS,14aR,16aS)-5′-cyclopropyl-8′-methoxy-14a-{[(1-methylcyclopropyl)sulfonyl]carbamoyl}-5,16-dioxo-1,1′,2′,5,6,7,8,9,10,11,13a,14,14a,15,16,16a-hexadecahydrospiro[cyclopropa[e]pyrrolo[1,2-a][1,4]diazacyclopentadecine-2,3′-pyrano[2,3-c]quinolin]-6-yl]carbamate], in the assay with HCV genotype 1b replicon (K+ salt), the EC50 came out at 2.84 nM. Moreover, the IC50 in assay [1] (K+ salt) came to 0.014 nM.
Turning to `COc1ccc2c3c(c(C4CC4)nc2c1)O[C@]1(CC3)C[C@H]2C(=O)N[C@]3(C(=O)NS(=O)(=O)C4(C)CC4)C[C@H]3/C=C\CCCCC[C@H](NC(=O)OC3(C)CC3)C(=O)N2C1` [Example 135, 1-methylcyclopropyl [(2R,6S,12Z,13aS,14aR,16aS)-5′-cyclopropyl-8′-methoxy-14a-{[(1-methylcyclopropyl)sulfonyl]carbamoyl}-5,16-dioxo-1,1′,2′,5,6,7,8,9,10,11,13a,14,14a,15,16,16a-hexadecahydrospiro[cyclopropa[e]pyrrolo[1,2-a][1,4]diazacyclopentadecine-2,3′-pyrano[2,3-c]quinolin]-6-yl]carbamate], the EC50 with HCV genotype 1b replicon (K+ salt) came to 2.82 nM. Further, the IC50 in assay [1] (K+ salt) came to 0.037 nM.
On the same counts, the results for `COc1ccc2c3c(c(C4CC4)nc2c1)O[C@]1(CC3)C[C@H]2C(=O)N[C@]3(C(=O)NS(=O)(=O)C4(C)CC4)C[C@H]3/C=C\CCCCC[C@H](NC(=O)OCC(C)C)C(=O)N2C1` [Example 136, 2-methylpropyl [(2R,6S,12Z,13aS,14aR,16aS)-5′-cyclopropyl-8′-methoxy-14a-{[(1-methylcyclopropyl)sulfonyl]carbamoyl}-5,16-dioxo-1,1′,2′,5,6,7,8,9,10,11,13a,14,14a,15,16,16a-hexadecahydrospiro[cyclopropa[e]pyrrolo[1,2-a][1,4]diazacyclopentadecine-2,3′-pyrano[2,3-c]quinolin]-6-yl]carbamate] are 2.12 nM and 0.019 nM.
Turning to `COc1ccc2c3c(c(C4CC4)nc2c1)O[C@]1(CC3)C[C@H]2C(=O)N[C@]3(C(=O)NS(=O)(=O)C4(C)CC4)C[C@H]3/C=C\CCCCC[C@H](NC(=O)OC(C)C)C(=O)N2C1` [Example 137, propan-2-yl [(2R,6S,12Z,13aS,14aR,16aS)-5′-cyclopropyl-8′-methoxy-14a-{[(1-methylcyclopropyl)sulfonyl]carbamoyl}-5,16-dioxo-1,1′,2′,5,6,7,8,9,10,11,13a,14,14a,15,16,16a-hexadecahydrospiro[cyclopropa[e]pyrrolo[1,2-a][1,4]diazacyclopentadecine-2,3′-pyrano[2,3-c]quinolin]-6-yl]carbamate], the concentration for a half-maximal effect (EC50) with HCV genotype 1b replicon turned out to be 1.71 nM. The concentration for half-maximal inhibition (IC50) in assay [1] worked out at 0.025 nM.
For `CCOC(=O)N[C@H]1CCCCC/C=C\[C@@H]2C[C@@]2(C(=O)NS(=O)(=O)C2(C)CC2)NC(=O)[C@@H]2C[C@]3(CCc4c(c(C5CC5)nc5cc(OC)ccc45)O3)CN2C1=O` [Example 138, ethyl [(2R,6S,12Z,13aS,14aR,16aS)-5′-cyclopropyl-8′-methoxy-14a-{[(1-methylcyclopropyl)sulfonyl]carbamoyl}-5,16-dioxo-1,1′,2′,5,6,7,8,9,10,11,13a,14,14a,15,16,16a-hexadecahydrospiro[cyclopropa[e]pyrrolo[1,2-a][1,4]diazacyclopentadecine-2,3′-pyrano[2,3-c]quinolin]-6-yl]carbamate], in the assay with HCV genotype 1b replicon, the EC50 is 2.51 nM. In addition, in assay [1], the half-maximal inhibitory concentration (IC50) was 0.043 nM.
`COC(=O)N[C@H]1CCCCC/C=C\[C@@H]2C[C@@]2(C(=O)NS(=O)(=O)C2(C)CC2)NC(=O)[C@@H]2C[C@]3(CCc4c(c(C5CC5)nc5cc(OC)ccc45)O3)CN2C1=O` [Example 139, methyl [(2R,6S,12Z,13aS,14aR,16aS)-5′-cyclopropyl-8′-methoxy-14a-{[(1-methylcyclopropyl)sulfonyl]carbamoyl}-5,16-dioxo-1,1′,2′,5,6,7,8,9,10,11,13a,14,14a,15,16,16a-hexadecahydrospiro[cyclopropa[e]pyrrolo[1,2-a][1,4]diazacyclopentadecine-2,3′-pyrano[2,3-c]quinolin]-6-yl]carbamate]: the half-maximal effective concentration (EC50) with HCV genotype 1b replicon was determined as 8.09 nM. Further, in assay [1], the IC50 stood at 0.127 nM.
As to `COc1ccc2nc(C)c3c(c2c1)CC[C@]1(C[C@H]2C(=O)N[C@]4(C(=O)NS(=O)(=O)C5(C)CC5)C[C@H]4/C=C\CCCCC[C@H](NC(=O)OC4(C)CC4)C(=O)N2C1)O3` [Example 141, 1-methylcyclopropyl [(2R,6S,12Z,13aS,14aR,16aS)-9′-methoxy-5′-methyl-14a-{[(1-methylcyclopropyl)sulfonyl]carbamoyl}-5,16-dioxo-1,1′,2′,5,6,7,8,9,10,11,13a,14,14a,15,16,16a-hexadecahydrospiro[cyclopropa[e]pyrrolo[1,2-a][1,4]diazacyclopentadecine-2,3′-pyrano[2,3-c]quinolin]-6-yl]carbamate], the EC50 in the assay on HCV genotype 1b replicon came to 1.47 nM. Also, the IC50 in assay [1] is 0.003 nM.
As to `COc1ccc2nc(C)c3c(c2c1)CC[C@]1(C[C@H]2C(=O)N[C@]4(C(=O)NS(=O)(=O)C5(C)CC5)C[C@H]4/C=C\CCCCC[C@H](NC(=O)OCC(C)C)C(=O)N2C1)O3` [Example 142, 2-methylpropyl [(2R,6S,12Z,13aS,14aR,16aS)-9′-methoxy-5′-methyl-14a-{[(1-methylcyclopropyl)sulfonyl]carbamoyl}-5,16-dioxo-1,1′,2′,5,6,7,8,9,10,11,13a,14,14a,15,16,16a-hexadecahydrospiro[cyclopropa[e]pyrrolo[1,2-a][1,4]diazacyclopentadecine-2,3′-pyrano[2,3-c]quinolin]-6-yl]carbamate], the concentration giving a half-maximal response (EC50) in the assay with HCV genotype 1b replicon worked out at 1.14 nM. In assay [1], half-maximal inhibition (IC50) required 0.004 nM.
With `Cc1nc2ccccc2c2c1O[C@]1(CC2)C[C@H]2C(=O)N[C@]3(C(=O)NS(=O)(=O)C4(C)CC4)C[C@H]3/C=C\CCCCC[C@H](NC(=O)OC3CCCCC3)C(=O)N2C1` [Example 143, cyclohexyl [(2R,6S,12Z,13aS,14aR,16aS)-5′-methyl-14a-{[(1-methylcyclopropyl)sulfonyl]carbamoyl}-5,16-dioxo-1,1′,2′,5,6,7,8,9,10,11,13a,14,14a,15,16,16a-hexadecahydrospiro[cyclopropa[e]pyrrolo[1,2-a][1,4]diazacyclopentadecine-2,3′-pyrano[2,3-c]quinolin]-6-yl]carbamate], the EC50 with HCV genotype 1b replicon (K+ salt) stood at 1.18 nM. Besides, the IC50 in assay [1] (K+ salt) is 0.009 nM.
On to `CC(C)COC(=O)N[C@H]1CCCCC/C=C\[C@@H]2C[C@@]2(C(=O)NS(=O)(=O)C2(C)CC2)NC(=O)[C@@H]2C[C@]3(CCc4c(c(C5CC5)nc5ccc(F)cc45)O3)CN2C1=O` [Example 144, 2-methylpropyl [(2R,6S,12Z,13aS,14aR,16aS)-5′-cyclopropyl-9′-fluoro-14a-{[(1-methylcyclopropyl)sulfonyl]carbamoyl}-5,16-dioxo-1,1′,2′,5,6,7,8,9,10,11,13a,14,14a,15,16,16a-hexadecahydrospiro[cyclopropa[e]pyrrolo[1,2-a][1,4]diazacyclopentadecine-2,3′-pyrano[2,3-c]quinolin]-6-yl]carbamate], for which the EC50 with HCV genotype 1b replicon came out at 1.02 nM. The molecule further yielded an IC50 in assay [1] of 0.007 nM.
In the case of `CC1(S(=O)(=O)NC(=O)[C@@]23C[C@H]2/C=C\CCCCC[C@H](NC(=O)OC2CCCC2)C(=O)N2C[C@@]4(CCc5c(c(C6CC6)nc6ccc(F)cc56)O4)C[C@H]2C(=O)N3)CC1` [Example 145, cyclopentyl [(2R,6S,12Z,13aS,14aR,16aS)-5′-cyclopropyl-9′-fluoro-14a-{[(1-methylcyclopropyl)sulfonyl]carbamoyl}-5,16-dioxo-1,1′,2′,5,6,7,8,9,10,11,13a,14,14a,15,16,16a-hexadecahydrospiro[cyclopropa[e]pyrrolo[1,2-a][1,4]diazacyclopentadecine-2,3′-pyrano[2,3-c]quinolin]-6-yl]carbamate], the 50% effective concentration (EC50) with HCV genotype 1b replicon came out at 1.16 nM. Moreover, in assay [1], the midpoint of inhibition, the IC50, lay at 0.006 nM.
For `Cc1nc2ccc(OC(F)(F)F)cc2c2c1O[C@]1(CC2)C[C@H]2C(=O)N[C@]3(C(=O)NS(=O)(=O)C4(C)CC4)C[C@H]3/C=C\CCCCC[C@H](NC(=O)OCC3CCCC3)C(=O)N2C1` [Example 146, cyclopentylmethyl [(2R,6S,12Z,13aS,14aR,16aS)-5′-methyl-14a-{[(1-methylcyclopropyl)sulfonyl]carbamoyl}-5,16-dioxo-9′-(trifluoromethoxy)-1,1′,2′,5,6,7,8,9,10,11,13a,14,14a,15,16,16a-hexadecahydrospiro[cyclopropa[e]pyrrolo[1,2-a][1,4]diazacyclopentadecine-2,3′-pyrano[2,3-c]quinolin]-6-yl]carbamate], in the assay on HCV genotype 1b replicon, the EC50 turned out to be 11.8 nM. In assay [1], this molecule had a half-inhibitory concentration (IC50) of 0.03 nM.
Take `Cc1nc2c(F)cccc2c2c1O[C@]1(CC2)C[C@H]2C(=O)N[C@]3(C(=O)NS(=O)(=O)C4(C)CC4)C[C@H]3/C=C\CCCCC[C@H](NC(=O)OCC(C)C)C(=O)N2C1` [Example 147, 2-methylpropyl [(2R,6S,12Z,13aS,14aR,16aS)-7′-fluoro-5′-methyl-14a-{[(1-methylcyclopropyl)sulfonyl]carbamoyl}-5,16-dioxo-1,1′,2′,5,6,7,8,9,10,11,13a,14,14a,15,16,16a-hexadecahydrospiro[cyclopropa[e]pyrrolo[1,2-a][1,4]diazacyclopentadecine-2,3′-pyrano[2,3-c]quinolin]-6-yl]carbamate]: the EC50 in the assay on HCV genotype 1b replicon came to 1.05 nM. Besides, the half-maximal inhibitory concentration (IC50) in assay [1] worked out at 0.01 nM.
